We go through one substance from patent US9028845B2, “Chimeric immunomodulatory compounds and methods of using the same-IV” (Dynavax Technologies Corporation, priority 2001, dated 2015).

In one assay the test system is PBMCs. The assay can be described thus: Human PBMC proliferation assay (3H-thymidine incorporation). The class given is cell-based. The following applies: Experiment A; for mean cpm: 2 μg/ml. For orientation: Dividing cells build labelled thymidine or BrdU into new DNA.
The next assay deals with mouse splenocytes. Put plainly: Mouse splenocyte cytokine secretion (IL-6, IL-12, IFN by ELISA). The class given is cell-based, BALB/c mice. Conditions: 24 h. Here is the method: Polynucleotides and chimeric compounds were tested for immunostimulatory activity on mouse splenocytes. Immunostimulation was assessed by measurement of cytokine secretion into the culture media. Cytokine levels in the culture supernatant were determined by enzyme-linked immunosorbent assay (ELISA) tests.
Cells were isolated and prepared using standard techniques. Spleens of 8 to 20 week-old BALB/c mice were harvested and the splenocytes isolated using standard teasing and treatment with ACK lysing buffer from BioWhittaker, Inc. Four spleens were pooled in this experiment. Isolated cells were washed in RPMI 1640 media supplemented with 2% heat-inactivated fetal calf serum (FCS), 50 μM 2-mercaptoethanol, 1% penicillin-streptomycin, and 2 mM L-glutamine and resuspended at approximately […] in 10% FCS/RPMI (RPMI 1640 media with 10% heat-inactivated FCS, 50 μM 2-mercaptoethanol, 1% penicillin-streptomycin, and 2 mM L-glutamine).
Cell cultures were set up in triplicate with approximately 7×10^5 cells/well in a 96-well flat microtiter plate in 100 μl 10% FCS/RPMI with the cells allowed to rest for at lest 1 hour after plating. The indicated test compounds were incubated (at the indicated concentrations) for 24 hours at 37° C. Cell supernatants were harvested and frozen at −80° C. Cytokine production by the cells was determined by ELISAs, as shown in 19.

In the next assay the test system is mouse lung. The assay can be described thus: Induction of immune-associated genes in the mouse lung after intranasal treatment (quantitative PCR). Format: in vivo, BALB/c mice. The following applies: 20 ug intranasal, 6 hrs; vs P-7 treated mice. The procedure: The genes evaluated included genes encoding cytokines, chemokines, cell surface molecules, transcription factors, metalloproteases, and other molecules. The study was performed at Northview Pacific Laboratories (Hercules, Calif.) with 6-8 week old female BALB/c mice from Jackson Labs (Bar Harbor, Me.). […] Therefore, at 6 hrs the lungs were harvested and snap-frozen in liquid nitrogen and stored at −80° C. for later use. Total RNA was isolated using RNeasy mini kits (Qiagen Inc., Valencia, Calif.). The RNA samples were DNAse-treated (Roche Diagnostics, Mannheim, Germany) and converted into cDNA using Superscript II Rnase H-Reverse Transcriptase (Invitrogen, Rockville Md.) as described in Scheerens et al., 2001, Eur. J. of Immunology 31:1465-74. The cDNA samples were pooled per group and in each pooled sample the expression of mRNA of 75 genes was measured using real-time quantitative PCR (ABI Prism 5700, Perkin Elmer Applied Biosystems) and syber green (Qiagen Inc.). In addition to the genes of interest, in each sample the mRNA expression of a housekeeping gene was measured (HPRT or ubiquitin). In order to correct for the amount of RNA in each sample, all data were calculated relative to the expression of the housekeeping gene.

A further assay concerns mice. Put plainly: Serum cytokines (IL-12 p40, IL-6, TNF-α) after subcutaneous injection in mice. The class given is in vivo. The following applies: 20 ug subcutaneous, blood 2 hours later. The procedure:
Blood was collected 2 hours later. For the LPS positive control group, mice were injected intraperitoneally with a 200 ul volume, and blood was collected 1.5 hours later (i.e., at the peak of LPS induced TNF-α activity). The blood was clotted and the serum was prepared and stored at −80° C. until assayed. Serum cytokines were assayed using Biosource cytoscreen kits for TNF-α and Pharmingen antibody pairs for mIL-6 and mIL-12. All samples were assayed in duplicate.

In the assay with PBMCs (Donor 146, 2 μg/ml), “5′-TGACTGTGAACGTTCGAGATGA-3′ (SEQ ID NO: 2) [Compound P-6, reference compound]” displayed a cpm1 of 22067 cpm, a cpm2 of 23740 cpm and a cpm3 of 28099 cpm. The mean cpm in the assay with PBMCs (Donor 146 mean) came to 24635 cpm. In the assay with PBMCs (Donor 147, 2 μg/ml), this substance returned a cpm1 of 26436 cpm, a cpm2 of 23830 cpm and a cpm3 of 17531 cpm. This substance also had a mean cpm in the assay with PBMCs (Donor 147 mean) of 22599 cpm. This substance also displayed a mean of both in the assay with PBMCs (mean of Donors 146 and 147, 2 μg/ml) of 23617 cpm. Moreover, in the assay on mouse splenocytes (dose 0.1 μg/ml), the IFN is reported as 187 and the IL-12 amounted to 1665. Besides, in the assay with mouse splenocytes (dose 1.0 μg/ml), the IFN is recorded as 2175, the IL-6 was found to be 5760 and the IL-12 amounted to 4565. Besides, in the assay on mouse splenocytes (dose 5.0 μg/ml), the IFN is 2505, the IL-6 is given as 9311 and the IL-12 was 5374. Also, in the assay with mouse lung, the “mRNA expression of immune-associated genes in the lung, in words” value is reported as “potently induce the expression of a variety of genes”. The “induction of serum IL-12 p40, IL-6 and TNF-α, in words” value in the assay on mice is “induced IL-12 p40, IL-6, and TNF-α”.
